Read-outs that look alike come from different tables or passages of the source.
Tests used:
[1] = Solid-state stability and thermal decomposition (TG-DTA); assay type: physicochemical
Experimental: (3) Its solid state is stable at room temperature. In the simulated air atmosphere and nitrogen, a thermal decomposition reaction can occur at a lower temperature (<190° C.) to generate palladium metal (see FIG. 2 and FIG. 3), which can reduce energy consumption in the thermal reduction or calcination process of catalyst preparation. Moreover, the decomposition products are Pd, CO2, N2 and H2O, facilitating clean production and environmental protection.
FIG. 2: a thermogravimetric curve (TG-DTA) of (NH4)2[Pd(NO2)2(C2O4)]·2H2O of the present disclosure in simulated air.
FIG. 3: a thermogravimetric curve (TG-DTA) of (NH4)2[Pd(NO2)2(C2O4)]·2H2O of the present disclosure in nitrogen.

[2] = background statement; cited from earlier work
[3] = Solubility in pure water at room temperature; assay type: physicochemical
Text: (§1) The pH of the solution at a concentration of 100 g/L is about 4-5.

[4] = Stability of aqueous solution (colour change, precipitation); assay type: physicochemical
Text: as §1

[5] = pH of aqueous solution; assay type: physicochemical; conditions: concentration of 100 g/L
Text: as §1

In the case of O.O.O=C([O-])C(=O)[O-].O=C([O-])C(=O)[O-].[NH4+].[NH4+].[Pd+2] [(NH4)2[Pd(C2O4)2]·2H2O, ammonium bis(oxalato)palladium(II) dihydrate, reference compound], the stability ([1]; room temperature, self-redox reaction producing palladium metal) is reported as “unstable”.
In the case of O=[N+]([O-])[O-].O=[N+]([O-])[O-].[Pd+2] [Palladium nitrate solution, palladium nitrate], the stability in water [2] is given as “unstable in water”.
In the case of O=C1[O][Pd]([N+](=O)[O-])([N+](=O)[O-])[O]C1=O [Pd-X6, ammonium dinitrooxalato palladium(II)], the solubility [3] is reported as > 400 mg/mL, the “solubility in pure water, equivalent Pd” value [3] is reported as > 120 g Pd/L and the stability in water ([4]; 60° C. for 5 hours) is reported as “color of the solution does not change and no precipitation is observed”. For the same compound, the stability in water ([4]; room temperature for 2 days) was “color of the solution does not change and no precipitation is observed”, the “pH of the solution” value [5] was 4-5 and the solid state stability ([1]; room temperature) was “stable”. For the same compound, the “thermal decomposition temperature to palladium metal” value ([1]; simulated air atmosphere and nitrogen) was < 190 °C.

Source: US20240092814A1, “WATER-SOLUBLE Pd(II) COMPLEX, METHOD FOR SYNTHESIZING SAME, AND USE THEREOF AS [sequence] PRECURSOR” (priority 2022, published 2024)
